System: HeLa cells
Experiment: HeLa cell 24 hr ploidy assay (DNA content)
Assay type: cell-based
Settings: Homo sapiens, HeLa, 4N ploidy, average, read-out: 24h_4NPloidy EC50_IP (uM Avg)
Procedure: HeLa cell 24 hr ploidy assay protocol
The purpose of this assay is to evaluate the ability of selected individual compounds to induce Deoxyribonucleic acid (DNA) content (ploidy) in cells through failed cell division. Cell cycle analysis is a rapid and efficient way to evaluate the status of DNA content (ploidy) of a given cell. HeLa cells (1×10^4 HeLa cells/well) in 100 ul of media (MEM+10% FBS) were plated in 96-well plates (Packard View) and cultured for 24 hrs at 37° C. maintained in a 5% CO2 atmosphere. […] The compounds were serially diluted in DMSO (0.25% final concentration). The cells were fixed (3.7% Formaldehyde and 1% glutaraldehyde) and permeabilized (1×PBS with 1% BSA and 0.2% Triton X-100) in preparation for nuclear staining. The well plates were stained for 45 minutes at RT in the dark using Hoechest 33342 nuclear stain at 0.5 ug.ml (Stock of 10 mg/ml, Invitrogen, CA, Cat #H3570). The nuclear stain was removed by aspiration and the cells were washed with wash buffer. A Cellomics Array Scan Vti plate reader was used to acquire the DNA ploidy data of the cells using Cell Cycle bioapplication. Numbers for each of “valid cell count/well”, “% of 4N cells” and “% of >4Ncells” were calculated with the assistance of an Activity Base 5.1ca software and dose curves were generated using an XLFit software. With XLFit, final EC50 IP and EC50 transit values, as well as the Max and Min, were calculated for each curve.

| EC50 | Structure (SMILES) |
| --- | --- |
| > 1.2 µM | COc1cc2nccc(Oc3ccc(Nc4nnc(-c5cccc(C)n5)c5ccccc45)cn3)c2cn1 [compound 127] |
| 0.059 µM | COc1cnc2c(Oc3ccc(Nc4nnc(-c5ccc(C)cn5)c5ccccc45)cc3)ccnc2c1 [compound 125] |
| 0.128 µM | COc1cnc2c(Oc3ccc(Nc4nnc(N5CCCCC5)c5ccccc45)cc3)ccnc2c1 [compound 151] |
| 0.033 µM | COc1cc2nccc(Oc3ccc(Nc4nnc(-c5ccc(C(C)(C)C)cc5)c5ccccc45)cc3)c2cc1OC [compound 106] |
| > 1.2 µM | COc1ccccc1-c1nnc(Nc2ccc(Oc3ccnc4cc(C#N)ccc34)cc2)c2ccccc12 [compound 119] |
| 0.048 µM | COc1cc2nccc(Oc3ccc(Nc4nnc(-c5cccc(COC(C)=O)n5)c5ccccc45)cc3)c2cc1OC [compound 113] |

Same assay, conditions: Homo sapiens, HeLa, HeLa cells, 4N ploidy, average, read-out: 24h_4NPloidy EC50_IP (uM Avg)

| Structure (SMILES) | EC50 |
| --- | --- |
| Brc1cnc2c(Oc3ccc(Nc4nnc(-c5ccccc5)c5ccccc45)cc3)ccnc2c1 [compound 245] | 0.381 µM |
| COc1ccc2c(Oc3ccc(Nc4nnc(-c5ccc(Cl)cc5)c5c4CCC5)cc3)ccnc2c1 [compound 412] | > 1.2 µM |
| COc1cnc2c(Oc3ccc(Nc4nnc(-c5ccc(Cl)cc5OC)c5ccccc45)cc3)ccnc2c1 [compound 253] | 0.835 µM |
| COc1cc2nccc(Oc3ccc(Nc4nnc(-c5ccc(C)cc5)c5ccccc45)cc3)c2cc1C(N)=O [compound 211] | 0.002 µM |
| c1ccc(-c2nnc(Nc3ccc(Cn4cnc5ccccc54)cc3)c3ccccc23)cc1 [compound 340] | ≥ 1.2 µM |
| COc1ccc2nccc(Oc3ccc(Nc4nnc(-c5ccccc5)c5ccccc45)cc3)c2c1 [compound 238] | 0.053 µM |
| O=C(c1cc2nccc(Sc3ccc(Nc4nnc(-c5ccc(Cl)cc5)c5ccccc45)cc3)c2s1)N1CCOCC1 [compound 314] | 0.03 µM |
| COc1cnc2c(Oc3ccc(Nc4nnc(-c5ccccc5)cc4C(C)C)cc3)ccnc2c1 [compound 234] | 0.196 µM |
| COc1cnc2c(Oc3ccc(Nc4nnc(-c5ccc6c(c5)OCCO6)c5ccccc45)cc3)ccnc2c1 [compound 166] | 0.087 µM |
| COc1cnc2c(Oc3ccc(Nc4nnc(-c5cnc6ccccc6c5)c5ccccc45)cc3)ccnc2c1 [compound 182] | 0.032 µM |
| N#Cc1ccc2c(Oc3ccc(Nc4nnc(-c5ccc(Cl)c(C#N)c5)c5ccccc45)cc3)ccnc2c1 [compound 231] | 0.067 µM |
| CCc1cc(N2CCCCC2)nnc1Nc1ccc(Oc2ccnc3cc(OC)cnc23)cc1 [compound 321] | > 1.2 µM |
| Cc1ccc(-c2nnc(Nc3ccc(Sc4ccnc5ccoc45)cc3)c3ccccc23)cc1F [Example 398, 4-(3-Fluoro-4-methylphenyl)-N-(4-(furo[3,2-b]pyridin-7-ylthio)phenyl)phthalazin-1-amine] | 0.009 µM |
| Cc1noc(-c2cc3nccc(Sc4ccc(Nc5nnc(-c6ccccc6)c6ccccc56)cc4)c3s2)n1 [compound 303, N-(4-((2-(3-methyl-1,2,4-oxadiazol-5-yl)thieno[3,2-b]pyridin-7-yl)thio)phenyl)-4-phenyl-1-phthalazinamine] | 0.25 µM |
| N#Cc1cnc2c(Oc3ccc(Nc4nnc(-c5ccc(Cl)cc5)c5ccccc45)cc3)ccnc2c1 [compound 265, 8-((4-((4-(4-chlorophenyl)-1-phthalazinyl)amino)phenyl)oxy)-1,5-naphthyridine-3-carbonitrile] | 0.056 µM |
| Cc1ccc(-c2nnc(Nc3ccc(Oc4ccnc5cc(-c6cncn6C)sc45)cc3)c3ccccc23)nc1 [compound 255] | 0.014 µM |
| COCCOc1cc(-c2nnc(Nc3ccc(Oc4ccnc5cc(OC)cnc45)cc3)c3ccccc23)ccc1C [Example 395, N-(4-(7-Methoxy-1,5-naphthyridin-4-yloxy)phenyl)-4-(3-(2-methoxyethoxy)-4-methylphenyl)phthalazin-1-amine] | 0.023 µM |
| COc1cnc2c(Oc3ccc(Nc4nnc(-c5cc(CF)cs5)c5ccccc45)cc3)ccnc2c1 [Example 408, 4-(4-(Fluoromethyl)thiophen-2-yl)-N-(4-(7-methoxy-1,5-naphthyridin-4-yloxy)phenyl)phthalazin-1-amine] | 0.025 µM |
| COc1cnc2c(Oc3ccc(Nc4nnc(-c5ccc(F)c(Cl)c5)c5ccccc45)cc3)ccnc2c1 [compound 193, 4-(3-chloro-4-fluorophenyl)-N-(4-((7-(methyloxy)-1,5-naphthyridin-4-yl)oxy)phenyl)-1-phthalazinamine] | 0.027 µM |
| COc1cccc(-c2nnc(Nc3ccc(Oc4ccnc5ccccc45)c(F)c3)c3ccccc23)n1 [compound 186] | 0.031 µM |
| COc1cnc2c(Oc3ccc(Nc4nnc(-c5ccc(C)c(N)c5)c5ccccc45)cc3)ccnc2c1 [compound 209] | 0.004 µM |
| COc1cnc2c(Oc3ccc(Nc4nnc(-c5cncnc5)c5ccccc45)cc3)ccnc2c1 [compound 215, N-(4-((7-(methyloxy)-1,5-naphthyridin-4-yl)oxy)phenyl)-4-(5-pyrimidinyl)-1-phthalazinamine] | > 1.2 µM |
| CCc1cc(-c2ccc(Cl)cc2)nnc1Nc1ccc(Oc2ccnc3cc(OC)cnc23)nc1 [compound 275, 6-(4-chlorophenyl)-4-ethyl-N-(6-(7-methoxy-1,5-naphthyridin-4-yloxy)pyridin-3-yl)pyridazin-3-amine] | 0.161 µM |
| COc1ccc2nccc(Oc3ccc(Nc4nnc(-c5cc(C)cs5)c5ccccc45)cc3)c2c1 [compound 269] | 0.016 µM |
| COc1cnc2c(Oc3ccc(Nc4nnc(-c5ccc(C)c(F)c5)c5ccccc45)cc3)ccnc2c1 [compound 243] | 0.006 µM |
| COc1cnc2c(Oc3ccc(Nc4nnc(-c5ccc(S(C)(=O)=O)cc5)c5ccccc45)cc3)ccnc2c1 [compound 263] | 0.138 µM |
| Cc1csc(-c2nnc(Nc3ccc(Oc4ccnc5ccncc45)cc3)c3ccccc23)c1 [compound 429] | 0.034 µM |

Continued, values first:

| EC50 | Structure (SMILES) |
| --- | --- |
| 0.008 µM | Clc1ccc(-c2nnc(Nc3ccc(Sc4ccnc5c4CCCN5)cc3)c3ccccc23)cc1 [compound 570] |
| 0.072 µM | COc1cnc2c(Sc3ccc(Nc4nnc(NCCCSC)c5ccccc45)cc3)ccnc2c1 [compound 508] |
| 0.178 µM | COc1cnc2c(Sc3ccc(Nc4nnc(N5CCC(N6CCCC6)CC5)c5ccccc45)cc3)ccnc2c1 [compound 538] |
| > 1.2 µM | c1ccc(-c2nnc(Nc3ccc(Sc4ncnc5ccccc45)cc3)c3ccccc23)cc1 [compound 561] |
| < 0.0023 µM | COc1cnc2c(Sc3ccc(Nc4nnc(-c5ccc6cn[nH]c6c5)c5ccccc45)cc3)ccnc2c1 [compound 453] |
| 0.013 µM | COc1cnc2c(Sc3ccc(Nc4nnc(N5CC[C@@H](OC)C5)c5ccccc45)cc3)ccnc2c1 [compound 540] |
| 0.021 µM | N#Cc1cc2nccc(Sc3ccc(Nc4nnc(-c5ccc6c(c5)OCO6)c5ccccc45)cc3)c2s1 [compound 457] |
| 0.016 µM | Clc1ccc(-c2nnc(Nc3ccc(Oc4ccnc5cccnc45)cc3)c3ccccc23)cc1 [compound 448] |
| 0.017 µM | N#Cc1cc2nccc(Sc3ccc(Nc4nnc(-c5ccc(Cl)cc5)c5ccccc45)cc3)c2o1 [compound 489] |
| 0.007 µM | Cc1csc(-c2nnc(Nc3ccc(Sc4ccnc5ccc(=O)[nH]c45)cc3)c3ccccc23)c1 [compound 589] |
| 0.024 µM | FC1(F)Oc2ccc(-c3nnc(Nc4ccc(Sc5ccnc6cccnc56)cc4)c4ccccc34)cc2O1 [compound 444] |
| 0.011 µM | COc1cc(OC)c2c(Oc3ccc(Nc4nnc(-c5cc(C)cs5)c5ccccc45)cc3)ncnc2c1 [compound 573] |
| 0.094 µM | COc1cnc2c(Sc3ccc(Nc4nnc(OC(C)C)c5ccccc45)cc3)ccnc2c1 [compound 511] |
| 0.061 µM | COc1cc2nccc(Sc3ccc(Nc4nnc(-c5ccccc5)c5ccccc45)cc3)c2nc1OC [compound 597] |
| 0.006 µM | COC1CCN(c2nnc(Nc3ccc(Sc4ccnc5cc(C#N)ccc45)cc3)c3ccccc23)CC1 [compound 534] |
| 0.069 µM | COc1ccc(-c2nnc(Nc3ccc(Sc4ccnc5ccoc45)cc3)c3ccccc23)cn1 [compound 485] |
| 0.227 µM | COc1cnc2c(Oc3ccc(Nc4nnc(-c5cc(C)cs5)c5ccccc45)cc3OC)ccnc2c1 [compound 567] |
| 0.018 µM | COc1cnc2c(Sc3ccc(Nc4nnc(N5CCN(CC(F)F)CC5)c5ccccc45)cc3)ccnc2c1 [compound 507] |
| 0.054 µM | COc1cnc2c(Sc3ccc(Nc4nnc(N5CCn6ncnc6C5)c5ccccc45)cc3)ccnc2c1 [compound 579] |
| 0.002 µM | Clc1ccc(-c2nnc(Nc3ccc(Sc4ccnc5cc(C6CC6)oc45)cc3)c3ccccc23)cc1 [compound 486] |

Same assay, conditions: Homo sapiens, HeLa, HeLa cells, 4N ploidy, given as class symbol, read-out: 24h_4NPloidy EC50_IP (uM Avg)

| EC50 | Structure (SMILES) |
| --- | --- |
| < 0.1 µM | c1ccc(-c2nnc(Nc3ccc(Sc4ccnc5ccccc45)cc3)c3ccccc23)cc1 [compound 294] |

Same assay, conditions: Homo sapiens, HeLa, HeLa cells, average, read-out: 24h_4NPloidy EC50_IP (uM Avg)

| EC50 | Structure (SMILES) |
| --- | --- |
| 0.032 µM | Oc1cnc2c(Oc3ccc(Nc4nnc(-c5ccc(Cl)cc5)c5ccccc45)cc3)ccnc2c1 [Example 409, 8-(4-(4-(4-Chlorophenyl)phthalazin-1-ylamino)phenoxy)-1,5-naphthyridin-3-ol] |
| 0.055 µM | CCc1cc(-c2ccccc2OC)nnc1Nc1ccc(Sc2ccnc3cc(OC)cnc23)cc1 [compound 609] |
